Experiments:
U2OS cells [1] = test: p53-responsive luciferase reporter assay; format: cell-based; settings: U2OS BP100-luc/CMV-lacZ, 30 μM, 18 h
[2] = Cellular functional assay; format: cell-based; settings: data not shown
MDM2 = MDM2 (Homo sapiens, UniProt Q00987); test: Fluorescence polarization binding affinity; settings: methyl to 4-chloro phenyl mutation
HCT-116 p53+/+ cells = test: MTT assay; format: cell-based; settings: 200 μM, 48 h; for selectivity toward wild-type p53 cells versus p53-deletion cells: HCT-116 p53+/+ vs p53–/–; for suppression of proliferation of wild-type p53 cells: HCT-116 p53+/+
U2OS cells [3] = test: Western blotting of p21, MDM2 and p53 expression; format: cell-based; settings: 30 μM, 16 h

MDM2, sequence (Q00987 1-150): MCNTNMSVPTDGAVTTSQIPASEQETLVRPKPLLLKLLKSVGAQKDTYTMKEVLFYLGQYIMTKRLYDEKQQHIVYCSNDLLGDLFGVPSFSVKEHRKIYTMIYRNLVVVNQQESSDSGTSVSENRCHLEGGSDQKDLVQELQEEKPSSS

What does the source list for CC(=O)N[C@@H](CC(C)C)CN(CC(=O)N[C@@H](Cc1ccccc1)CN(CC(=O)N[C@@H](CCC(=O)O)CN(CC(=O)N[C@@H](Cc1c[nH]c2ccccc12)CN(CC(=O)N[C@@H](CCCCN)CN(CC(=O)N[C@@H](CC(C)C)CN(CC(=O)N[C@@H](C)CN(CC(N)=O)S(C)(=O)=O)S(=O)(=O)CC(C)C)S(C)(=O)=O)S(C)(=O)=O)S(C)(=O)=O)S(C)(=O)=O)S(=O)(=O)c1ccc(Cl)cc1 [PS4]?
luciferase activity compared with p53 peptide (U2OS cells [1]): marginally increased luciferase activity; activity in the cellular functional assay [2]: none of them is active; improvement of Kd (MDM2): ∼fourfold improvement

For CC(=O)N[C@@H](CC(C)C)CN(CC(=O)N[C@@H](Cc1ccccc1)CN(CC(=O)N[C@@H](CCC(=O)O)CN(CC(=O)N[C@@H](Cc1c[nH]c2ccccc12)CN(CC(=O)N[C@@H](CCCCN)CN(CC(=O)N[C@@H](CC1CCC1)CN(CC(=O)N[C@@H](C)CN(CC(N)=O)S(C)(=O)=O)S(=O)(=O)CC(C)C)S(C)(=O)=O)S(C)(=O)=O)S(C)(=O)=O)S(C)(=O)=O)S(=O)(=O)c1ccc(Cl)cc1 [PS10], which “luciferase activity compared with p53 peptide” value (U2OS cells [1]) is on record?
Its value is “marginally increased luciferase activity”.

And the “activity in the cellular functional assay” value [2]?
Its value is “none of them is active”.

What about the “selectivity toward wild-type p53 cells versus p53-deletion cells” value (HCT-116 p53+/+ cells) of the same molecule?
The value was “more selective toward wild-type p53 cells than p53-deletion cells”.

What about the “suppression of proliferation of wild-type p53 cells” value (HCT-116 p53+/+ cells) of the same molecule?
The value was “suppress proliferation of wild-type p53 cells more efficiently than the p53 peptides”.

Which results are given for CC(=O)N[C@@H](CC(C)C)CN(CC(=O)N[C@@H](Cc1ccccc1)CN(CC(=O)N[C@@H](CCC(=O)O)CN1CC(=O)N[C@@H](Cc2c[nH]c3ccccc23)CN(S(C)(=O)=O)CC(=O)N[C@@H](CCCCN)CN(CC(=O)N[C@@H](CC(C)C)CN(CC(=O)N[C@@H](C)CN(CC(N)=O)S(C)(=O)=O)S(=O)(=O)CC(C)C)S(=O)(=O)CCCC/C=C\CCCCS1(=O)=O)S(C)(=O)=O)S(=O)(=O)c1ccc(Cl)cc1 [PS11]?
MDM2 level (U2OS cells [3]): increased moderately; p21 level (U2OS cells [3]; compared to control (PBS buffer)): increased significantly; selectivity toward wild-type p53 cells versus p53-deletion cells (HCT-116 p53+/+ cells): more selective toward wild-type p53 cells than p53-deletion cells; suppression of proliferation of wild-type p53 cells (HCT-116 p53+/+ cells): suppress proliferation of wild-type p53 cells more efficiently than the p53 peptides

With CC(=O)N[C@@H](CC(C)C)CN(CC(=O)N[C@@H](Cc1ccccc1)CN(CC(=O)N[C@@H](CCC(=O)O)CN1CC(=O)N[C@@H](Cc2c[nH]c3ccccc23)CN(S(C)(=O)=O)CC(=O)N[C@@H](CCCCN)CN(CC(=O)N[C@@H](CC(C)C)CN(CC(=O)N[C@@H](C)CN(CC(N)=O)S(C)(=O)=O)S(=O)(=O)CC(C)C)S(=O)(=O)CC/C=C/CCCCS1(=O)=O)S(C)(=O)=O)S(=O)(=O)c1ccc(Cl)cc1 [PS12] as the molecule, how does the MDM2 level (U2OS cells [3]) read?
The MDM2 level was “increased moderately”.

From PMC7025332 (Journal of Medicinal Chemistry, 2020)
